This is an account of results in patent publication US20170128390A1, “DISINFECTANT AND ANTIMICROBIAL COMPOSITIONS, IN PARTICULAR FOR THE VETERINARY FIELD” (I.C.F. S.R.L., priority 2014, published 2017).

The subject of assay [1] is Staphylococcus aureus ATCC 25923. The experiment in a line: Time-killing assay (bactericidal activity of new formulations), CFU count. In kind it is cell-based. The following applies: CLX 0.000106%, AMP 2041 0.5 μg/ml; for Δ (change of CFU count) at T0 / CFU count at T0: T0 = 0 min; for CFU count at T0 / CFU count at T0.5 / CFU count at T1 / CFU count at T3 / CFU count at T5 / CFU count at T10: CC 600; for Δ (change of CFU count) at T0.5 / CFU count at T0.5: T0.5 = 0.5 min; for Δ (change of CFU count) at T1 / CFU count at T1: T1 = 1 min; for Δ (change of CFU count) at T3 / CFU count at T3: T3 (footnote: T2.5 = 2.5 min); for Δ (change of CFU count) at T5 / CFU count at T5: T5 = 5 min; for Δ (change of CFU count) at T10 / CFU count at T10: T10 = 10 min. The procedure: For each strain of reference, three to five morphologically similar colonies are selected from blood agar plates and inoculated into tubes containing 6 ml of Brain Heart Infusion broth (DIFCO, USA).
The tubes are vortexed and incubated at 37° C. with stirring at 225 rpm for 3-4 hours, until achieving a required degree of turbidity, greater than or equal to 0.5 of the Mc Farland scale.
Thereafter, the bacterial suspension is centrifuged at 1000 rpm for 20 minutes. The resulting pellet of bacteria is resuspended in 10mM PB. The turbidity is adjusted with the same buffer solution and checked by measuring the absorbance of the suspension at the spectrophotometer. The absorbance is considered equal to 0.5 of the Mc Farland scale when the optical density at 600 nm is between 0:08-0:13. At this value, the bacterial suspension contains approximately 10^8UFC/ml. Two hundred microliters of the assessed and adjusted bacterial suspension are added to 19.8 ml of 10 mM PB to obtain a final dilution of 1:100. Then, within a thirty minutes, 0:05 ml of this suspension (10^6UFC/ml) are inoculated into each well of an ELISA plate to obtain a final concentration of bacteria of about 5×10^5UFC/ml.
The time-killing assay was carried out to evaluate the bactericidal effects of the new formulations, using a modified quantitative test of the European standards EN1040 and EN1276. 100 μl of the bacterial suspension are added to 900 μl of the new formulation and aliquots of 50 μl of the mixture are subjected to assay at 0.5, 1, 2.5, 5, 10, 20, 30, 60, 90 and 120 min., respectively. 450 μl of neutralizing solution are added to each sample and left to act at room temperature for 3 minutes. Thereafter, each sample is serially diluted in PBS (pH 7.4) and 50 μl are plated on LB agar and the plates incubated at 37° C. for 24 hours for the count of CFU. The sterility control (100 μl PBS in place of the bacterial suspension) and the control in the absence of the new formulation are set up. The test is also carried out in the presence of 0.3% and 3.0% (w/v) BSA to simulate a paraphysiological environment. All experiments were repeated in triplicate.

For assay [2], the system named is Pseudomonas aeruginosa ATCC 27853. Described as above. The following applies: CLX 0.000106%, AMP 2041 0.5 μg/ml, TRIS-EDTA 0.1% alone or 0.476%-0.126% in triple combination; for Δ (change of CFU count) at T0 / CFU count at T0: T0 = 0 min; for CFU count at T0 / CFU count at T0.5 / CFU count at T1 / CFU count at T3 / CFU count at T5 / CFU count at T10: CC 600; for Δ (change of CFU count) at T0.5 / CFU count at T0.5: T0.5 = 0.5 min; for Δ (change of CFU count) at T1 / CFU count at T1: T1 = 1 min; for Δ (change of CFU count) at T3 / CFU count at T3: T3 (footnote: T2.5 = 2.5 min); for Δ (change of CFU count) at T5 / CFU count at T5: T5 = 5 min; for Δ (change of CFU count) at T10 / CFU count at T10: T10 = 10 min. In kind it is cell-based. The procedure: The tubes are vortexed and incubated at 37° C. with stirring at 225 rpm for 3-4 hours, until achieving a required degree of turbidity, greater than or equal to 0.5 of the Mc Farland scale. Thereafter, the bacterial suspension is centrifuged at 1000 rpm for 20 minutes. The resulting pellet of bacteria is resuspended in 10mM PB. The turbidity is adjusted with the same buffer solution and checked by measuring the absorbance of the suspension at the spectrophotometer. The absorbance is considered equal to 0.5 of the Mc Farland scale when the optical density at 600 nm is between 0:08-0:13. At this value, the bacterial suspension contains approximately 10^8UFC/ml. Two hundred microliters of the assessed and adjusted bacterial suspension are added to 19.8 ml of 10 mM PB to obtain a final dilution of 1:100. Then, within a thirty minutes, 0:05 ml of this suspension (10^6UFC/ml) are inoculated into each well of an ELISA plate to obtain a final concentration of bacteria of about 5×10^5UFC/ml. […] Thereafter, each sample is serially diluted in PBS (pH 7.4) and 50 μl are plated on LB agar and the plates incubated at 37° C. for 24 hours for the count of CFU. The sterility control (100 μl PBS in place of the bacterial suspension) and the control in the absence of the new formulation are set up. The test is also carried out in the presence of 0.3% and 3.0% (w/v) BSA to simulate a paraphysiological environment. All experiments were repeated in triplicate.

Consider “AMP 2041: peptide named AMP2041 (SEQ.ID. No.1), synthesized by SelleckChem (HKCAKIKWRGVHVKYCA)”, for which, in assay [1], the “Δ (change of CFU count) at T0” value was “Δ = 0%”, the “CFU count at T0” value was 600, the “Δ (change of CFU count) at T0.5” value was “Δ = 0%” and the “CFU count at T0.5” value stood at 600. For the same molecule, in assay [1], the “Δ (change of CFU count) at T1” value is given as “Δ = 0%”, the “CFU count at T1” value is recorded as 600, the “Δ (change of CFU count) at T3” value was “Δ = 0%” and the “CFU count at T3” value came to 600. In addition, in assay [1], the “Δ (change of CFU count) at T5” value was “Δ = 0%”, the “CFU count at T5” value is reported as 600, the “Δ (change of CFU count) at T10” value is given as “Δ = 0%” and the “CFU count at T10” value stood at 600. For the same molecule, in assay [2], the “Δ (change of CFU count) at T0” value is reported as “Δ = 0%”, the “CFU count at T0” value is recorded as 600, the “Δ (change of CFU count) at T0.5” value is recorded as “Δ = 0%” and the “CFU count at T0.5” value turned out to be 600. For the same molecule, in assay [2], the “Δ (change of CFU count) at T1” value is on record as “Δ = 0%”, the “CFU count at T1” value stood at 600, the “Δ (change of CFU count) at T3” value is recorded as “Δ = 0%” and the “CFU count at T3” value is reported as 600. In assay [2], the “Δ (change of CFU count) at T5” value was “Δ = 0%”, the “CFU count at T5” value is recorded as 600, the “Δ (change of CFU count) at T10” value was “Δ = 0%” and the “CFU count at T10” value is 600.
With `[H]/N=C(\N/C(=N/[H])NCCCCCCNC(=N)NC(=N)Nc1ccc(Cl)cc1)Nc1ccc(Cl)cc1` [CLX, chlorhexidine], in assay [1], the “Δ (change of CFU count) at T0” value is “Δ = 0%”, the “CFU count at T0” value is reported as 600, the “Δ (change of CFU count) at T0.5” value was “Δ = 0%” and the “CFU count at T0.5” value worked out at 600. Moreover, in assay [1], the “Δ (change of CFU count) at T1” value is listed as “Δ = 0%”, the “CFU count at T1” value was 600, the “Δ (change of CFU count) at T3” value is “Δ = 0%” and the “CFU count at T3” value was found to be 600. Further, in assay [1], the “Δ (change of CFU count) at T5” value is “Δ = 0%”, the “CFU count at T5” value was found to be 600, the “Δ (change of CFU count) at T10” value is “Δ = 0%” and the “CFU count at T10” value is 600. Moreover, in assay [2], the “Δ (change of CFU count) at T0” value is “Δ = 0%”, the “CFU count at T0” value is reported as 600, the “Δ (change of CFU count) at T0.5” value is reported as “Δ = 0%” and the “CFU count at T0.5” value was determined as 600. Besides, in assay [2], the “Δ (change of CFU count) at T1” value is “Δ = 0%”, the “CFU count at T1” value is 600, the “Δ (change of CFU count) at T3” value is listed as “Δ = 0%” and the “CFU count at T3” value is 600. In assay [2], the “Δ (change of CFU count) at T5” value is “Δ = 0%”, the “CFU count at T5” value is reported as 600, the “Δ (change of CFU count) at T10” value was “Δ = 0%” and the “CFU count at T10” value came to 600.
